Common to all, as to format: cell-based
Assay [1] deals with T1, hTRPML2 (Homo sapiens, UniProt Q8IZK6).
T1 construct: gene MCOLN2; hTRPML2-YFP
T1 sequence (Q8IZK6 1-566): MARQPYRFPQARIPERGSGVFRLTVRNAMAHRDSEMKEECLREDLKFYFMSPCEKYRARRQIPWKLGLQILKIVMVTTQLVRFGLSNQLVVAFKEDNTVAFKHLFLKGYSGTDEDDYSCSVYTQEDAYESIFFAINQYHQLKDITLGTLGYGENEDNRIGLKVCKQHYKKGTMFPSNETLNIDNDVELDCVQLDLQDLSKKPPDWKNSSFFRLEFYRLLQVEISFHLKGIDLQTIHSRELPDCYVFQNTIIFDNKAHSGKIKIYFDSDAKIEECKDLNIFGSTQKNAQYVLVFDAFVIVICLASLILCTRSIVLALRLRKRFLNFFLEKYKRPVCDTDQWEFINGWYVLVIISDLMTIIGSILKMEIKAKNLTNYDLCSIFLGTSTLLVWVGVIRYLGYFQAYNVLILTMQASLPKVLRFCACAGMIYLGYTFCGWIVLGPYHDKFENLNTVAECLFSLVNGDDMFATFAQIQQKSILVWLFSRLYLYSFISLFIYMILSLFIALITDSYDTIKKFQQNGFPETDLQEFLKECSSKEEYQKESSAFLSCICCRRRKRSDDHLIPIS
Kind of assay: fura-2 calcium imaging dose-response and endolysosomal patch-clamp in HEK293 cells; G425A mutation abrogates effect. In general terms: Patch clamp records ionic current or voltage across a cell membrane.

The target of assay [2] is T2, mTRPML2 (Mus musculus, UniProt Q8K595).
T2 construct: gene Mcoln2
T2 sequence (Q8K595 1-566): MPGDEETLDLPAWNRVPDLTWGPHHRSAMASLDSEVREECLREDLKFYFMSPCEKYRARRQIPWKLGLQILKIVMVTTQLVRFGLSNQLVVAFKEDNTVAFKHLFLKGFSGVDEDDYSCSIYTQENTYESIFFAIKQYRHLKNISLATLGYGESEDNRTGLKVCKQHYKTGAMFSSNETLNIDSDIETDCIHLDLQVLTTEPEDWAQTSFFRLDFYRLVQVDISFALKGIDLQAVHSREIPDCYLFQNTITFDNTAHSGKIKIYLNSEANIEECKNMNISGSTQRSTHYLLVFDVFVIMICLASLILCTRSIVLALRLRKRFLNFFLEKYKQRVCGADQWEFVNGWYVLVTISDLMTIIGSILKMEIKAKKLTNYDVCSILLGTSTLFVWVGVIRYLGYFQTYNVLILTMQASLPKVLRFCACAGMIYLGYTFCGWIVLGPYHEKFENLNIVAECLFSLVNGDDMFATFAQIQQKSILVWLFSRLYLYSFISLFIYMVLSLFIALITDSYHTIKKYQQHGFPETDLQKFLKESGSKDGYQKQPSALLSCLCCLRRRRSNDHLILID
Put plainly: fura-2 calcium imaging dose-response in HEK293 cells; endolysosomal patch-clamp in LPS-stimulated mouse macrophages.

In assay [3] the target is T3, hTRPML1 (Homo sapiens, UniProt Q9GZU1).
T3 construct: gene MCOLN1
T3 sequence (Q9GZU1 whole entry): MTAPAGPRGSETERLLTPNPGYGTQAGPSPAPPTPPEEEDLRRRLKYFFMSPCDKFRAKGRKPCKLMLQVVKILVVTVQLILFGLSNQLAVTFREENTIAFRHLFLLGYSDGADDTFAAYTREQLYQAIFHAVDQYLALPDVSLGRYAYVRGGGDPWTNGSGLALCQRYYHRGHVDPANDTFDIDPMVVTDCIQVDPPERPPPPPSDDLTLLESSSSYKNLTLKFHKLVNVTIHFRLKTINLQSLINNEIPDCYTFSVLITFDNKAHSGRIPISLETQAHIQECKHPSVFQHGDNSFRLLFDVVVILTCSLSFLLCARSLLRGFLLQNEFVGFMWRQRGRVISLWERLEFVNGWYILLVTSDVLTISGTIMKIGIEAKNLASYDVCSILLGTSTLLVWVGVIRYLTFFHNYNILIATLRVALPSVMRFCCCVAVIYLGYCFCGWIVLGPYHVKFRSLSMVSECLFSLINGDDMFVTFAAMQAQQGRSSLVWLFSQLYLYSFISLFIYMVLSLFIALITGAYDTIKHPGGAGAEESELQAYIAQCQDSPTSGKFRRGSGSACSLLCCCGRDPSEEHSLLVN
Put plainly: endolysosomal patch-clamp (LE/LY, HEK293), […], positive control.

Assay [4] has as its target T4, hTRPML3 (Homo sapiens, UniProt Q8TDD5).
T4 sequence (Q8TDD5 1-553): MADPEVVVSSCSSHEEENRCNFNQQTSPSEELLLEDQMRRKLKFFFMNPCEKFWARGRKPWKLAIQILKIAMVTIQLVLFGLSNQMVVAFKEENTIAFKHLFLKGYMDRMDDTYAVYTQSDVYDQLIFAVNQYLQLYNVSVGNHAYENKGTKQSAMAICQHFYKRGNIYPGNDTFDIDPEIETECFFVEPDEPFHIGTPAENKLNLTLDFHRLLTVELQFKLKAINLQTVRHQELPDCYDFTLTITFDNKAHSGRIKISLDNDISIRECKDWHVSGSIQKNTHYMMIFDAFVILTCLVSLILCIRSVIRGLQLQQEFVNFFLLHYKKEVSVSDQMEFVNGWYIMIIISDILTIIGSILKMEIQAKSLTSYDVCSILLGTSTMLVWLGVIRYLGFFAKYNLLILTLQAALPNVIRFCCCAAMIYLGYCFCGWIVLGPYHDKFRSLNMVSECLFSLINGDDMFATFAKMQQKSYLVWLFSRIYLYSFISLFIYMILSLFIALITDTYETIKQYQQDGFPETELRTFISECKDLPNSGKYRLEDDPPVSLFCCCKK
Described as above. Also noted: gene MCOLN3.

Take `Clc1cccc(Cl)c1C1=NOC2C3CCC(C3)C12` (stereo not shown) [EVP-22, ML2-SA1]: the EC50 in assay [1] came out at 1240 ± 120 nM; in assay [2] it was 2380 ± 10 nM.
For the compound `CC1CC(C)(C)N(C(=O)CN2C(=O)c3ccccc3C2=O)c2ccccc21` (stereo not shown) [ML-SA1], the “endolysosomal patch-clamp (LE/LY, HEK293), 10 μM, positive control” value in assay [3] and in assay [4] was “the latter ones were robustly activated by ML-SA1 as a positive control” in each case.

For orientation: EC50 means the concentration giving half of the maximal effect.
